Results: ChEMBL document CHEMBL5614394, “Novel pleuromutilin derivatives conjugated with phenyl-sulfide and boron-containing moieties as potent antibacterial agents against antibiotic-resistant bacteria” (Eur J Med Chem, 2024)
Converted amounts (≈) assume the structure as drawn.

These compounds were tested on Staphylococcus epidermidis (assay: Antibacterial activity against Staphylococcus epidermidis ATCC 12228 assessed as inhibition of visible growth of bacteria incubated for 24 hrs by CLSI protocol based broth-dilution method).
Type: functional

| MIC [µg/mL] | SMILES |
| --- | --- |
| 16 (≈ 24.6 µM) | C=C[C@]1(C)C[C@@H](OC(=O)CSc2cccc(NC(=O)c3ccc(B(O)O)c(F)c3)c2)[C@]2(C)[C@H](C)CC[C@]3(CCC(=O)[C@H]32)[C@@H](C)[C@@H]1O |
| 1 (≈ 1.5 µM) | C=C[C@]1(C)C[C@@H](OC(=O)CSc2cccc(NC(=O)c3ccc(B(O)O)c(Cl)c3)c2)[C@]2(C)[C@H](C)CC[C@]3(CCC(=O)[C@H]32)[C@@H](C)[C@@H]1O |
| 0.063 (≈ 0.0973 µM) | C=C[C@]1(C)C[C@@H](OC(=O)CSc2cccc(NC(=O)Cc3cccc(B(O)O)c3)c2)[C@]2(C)[C@H](C)CC[C@]3(CCC(=O)[C@H]32)[C@@H](C)[C@@H]1O |
| 0.063 (≈ 0.0928 µM) | C=C[C@]1(C)C[C@@H](OC(=O)CSc2cccc(NC(=O)c3ccc(B(O)O)c([N+](=O)[O-])c3)c2)[C@]2(C)[C@H](C)CC[C@]3(CCC(=O)[C@H]32)[C@@H](C)[C@@H]1O |
| 16 (≈ 24.6 µM) | C=C[C@]1(C)C[C@@H](OC(=O)CSc2cccc(NC(=O)c3ccc(F)c(B(O)O)c3)c2)[C@]2(C)[C@H](C)CC[C@]3(CCC(=O)[C@H]32)[C@@H](C)[C@@H]1O |
| 0.031 (≈ 0.0463 µM) | C=C[C@]1(C)C[C@@H](OC(=O)CSc2cccc(NC(=O)c3ccc(B(O)O)c(F)c3F)c2)[C@]2(C)[C@H](C)CC[C@]3(CCC(=O)[C@H]32)[C@@H](C)[C@@H]1O |
| 0.031 (≈ 0.0467 µM) | C=C[C@]1(C)C[C@@H](OC(=O)CSc2cccc(NC(=O)c3cc(OC)cc(B(O)O)c3)c2)[C@]2(C)[C@H](C)CC[C@]3(CCC(=O)[C@H]32)[C@@H](C)[C@@H]1O |
| 0.031 (≈ 0.0479 µM) | C=C[C@]1(C)C[C@@H](OC(=O)CSc2cccc(NC(=O)c3ccc(C)c(B(O)O)c3)c2)[C@]2(C)[C@H](C)CC[C@]3(CCC(=O)[C@H]32)[C@@H](C)[C@@H]1O |
| 0.063 (≈ 0.0985 µM) | C=C[C@]1(C)C[C@@H](OC(=O)CSc2cccc(NC(=O)c3ccc(B(O)O)s3)c2)[C@]2(C)[C@H](C)CC[C@]3(CCC(=O)[C@H]32)[C@@H](C)[C@@H]1O |
| 4 (≈ 5.99 µM) | C=C[C@]1(C)C[C@@H](OC(=O)CS[C@@H]2CC[C@@H](NC(=O)c3ccc4c(c3)B(O)OC4)C[C@H]2O)[C@]2(C)[C@H](C)CC[C@]3(CCC(=O)[C@H]32)[C@@H](C)[C@@H]1O |
| 0.031 (≈ 0.0489 µM) | C=C[C@]1(C)C[C@@H](OC(=O)CSc2ccc(NC(=O)c3cccc(B(O)O)c3)cc2)[C@]2(C)[C@H](C)CC[C@]3(CCC(=O)[C@H]32)[C@@H](C)[C@@H]1O |
| 0.031 (≈ 0.0463 µM) | C=C[C@]1(C)C[C@@H](OC(=O)CSc2cccc(NC(=O)c3cc(F)c(B(O)O)c(F)c3)c2)[C@]2(C)[C@H](C)CC[C@]3(CCC(=O)[C@H]32)[C@@H](C)[C@@H]1O |
| 0.031 (≈ 0.0467 µM) | C=C[C@]1(C)C[C@@H](OC(=O)CSc2cccc(NC(=O)c3ccc(B(O)O)c(OC)c3)c2)[C@]2(C)[C@H](C)CC[C@]3(CCC(=O)[C@H]32)[C@@H](C)[C@@H]1O |
| 0.25 (≈ 0.368 µM) | C=C[C@]1(C)C[C@@H](OC(=O)CSc2cccc(NC(=O)c3ccc(B(O)O)cc3[N+](=O)[O-])c2)[C@]2(C)[C@H](C)CC[C@]3(CCC(=O)[C@H]32)[C@@H](C)[C@@H]1O |
| 16 (≈ 24.6 µM) | C=C[C@]1(C)C[C@@H](OC(=O)CSc2ccc(NC(=O)c3ccc(B(O)O)c(F)c3)cc2)[C@]2(C)[C@H](C)CC[C@]3(CCC(=O)[C@H]32)[C@@H](C)[C@@H]1O |
| 1 (≈ 1.5 µM) | C=C[C@]1(C)C[C@@H](OC(=O)CSc2cccc(NC(=O)c3ccc(B(O)O)cc3Cl)c2)[C@]2(C)[C@H](C)CC[C@]3(CCC(=O)[C@H]32)[C@@H](C)[C@@H]1O |

The compounds below were run on Staphylococcus aureus (assay: Antibacterial activity against Staphylococcus aureus ATCC 29213 assessed as inhibition of visible growth of bacteria incubated for 24 hrs by CLSI protocol based broth-dilution method).
Type: functional

| MIC [µg/mL] | SMILES |
| --- | --- |
| 0.063 (≈ 0.0967 µM) | C=C[C@]1(C)C[C@@H](OC(=O)CSc2cccc(NC(=O)c3ccc(B(O)O)c(F)c3)c2)[C@]2(C)[C@H](C)CC[C@]3(CCC(=O)[C@H]32)[C@@H](C)[C@@H]1O |
| 0.063 (≈ 0.0943 µM) | C=C[C@]1(C)C[C@@H](OC(=O)CSc2cccc(NC(=O)c3ccc(B(O)O)c(Cl)c3)c2)[C@]2(C)[C@H](C)CC[C@]3(CCC(=O)[C@H]32)[C@@H](C)[C@@H]1O |
| 0.063 (≈ 0.0973 µM) | C=C[C@]1(C)C[C@@H](OC(=O)CSc2cccc(NC(=O)Cc3cccc(B(O)O)c3)c2)[C@]2(C)[C@H](C)CC[C@]3(CCC(=O)[C@H]32)[C@@H](C)[C@@H]1O |
| 0.063 (≈ 0.0928 µM) | C=C[C@]1(C)C[C@@H](OC(=O)CSc2cccc(NC(=O)c3ccc(B(O)O)c([N+](=O)[O-])c3)c2)[C@]2(C)[C@H](C)CC[C@]3(CCC(=O)[C@H]32)[C@@H](C)[C@@H]1O |
| 0.063 (≈ 0.0967 µM) | C=C[C@]1(C)C[C@@H](OC(=O)CSc2cccc(NC(=O)c3ccc(F)c(B(O)O)c3)c2)[C@]2(C)[C@H](C)CC[C@]3(CCC(=O)[C@H]32)[C@@H](C)[C@@H]1O |
| 0.031 (≈ 0.0463 µM) | C=C[C@]1(C)C[C@@H](OC(=O)CSc2cccc(NC(=O)c3ccc(B(O)O)c(F)c3F)c2)[C@]2(C)[C@H](C)CC[C@]3(CCC(=O)[C@H]32)[C@@H](C)[C@@H]1O |
| 0.031 (≈ 0.0467 µM) | C=C[C@]1(C)C[C@@H](OC(=O)CSc2cccc(NC(=O)c3cc(OC)cc(B(O)O)c3)c2)[C@]2(C)[C@H](C)CC[C@]3(CCC(=O)[C@H]32)[C@@H](C)[C@@H]1O |
| 0.031 (≈ 0.0479 µM) | C=C[C@]1(C)C[C@@H](OC(=O)CSc2cccc(NC(=O)c3ccc(C)c(B(O)O)c3)c2)[C@]2(C)[C@H](C)CC[C@]3(CCC(=O)[C@H]32)[C@@H](C)[C@@H]1O |
| 0.063 (≈ 0.0985 µM) | C=C[C@]1(C)C[C@@H](OC(=O)CSc2cccc(NC(=O)c3ccc(B(O)O)s3)c2)[C@]2(C)[C@H](C)CC[C@]3(CCC(=O)[C@H]32)[C@@H](C)[C@@H]1O |
| 0.063 (≈ 0.0944 µM) | C=C[C@]1(C)C[C@@H](OC(=O)CS[C@@H]2CC[C@@H](NC(=O)c3ccc4c(c3)B(O)OC4)C[C@H]2O)[C@]2(C)[C@H](C)CC[C@]3(CCC(=O)[C@H]32)[C@@H](C)[C@@H]1O |
| 0.031 (≈ 0.0489 µM) | C=C[C@]1(C)C[C@@H](OC(=O)CSc2ccc(NC(=O)c3cccc(B(O)O)c3)cc2)[C@]2(C)[C@H](C)CC[C@]3(CCC(=O)[C@H]32)[C@@H](C)[C@@H]1O |
| 0.031 (≈ 0.0463 µM) | C=C[C@]1(C)C[C@@H](OC(=O)CSc2cccc(NC(=O)c3cc(F)c(B(O)O)c(F)c3)c2)[C@]2(C)[C@H](C)CC[C@]3(CCC(=O)[C@H]32)[C@@H](C)[C@@H]1O |
| 0.031 (≈ 0.0467 µM) | C=C[C@]1(C)C[C@@H](OC(=O)CSc2cccc(NC(=O)c3ccc(B(O)O)c(OC)c3)c2)[C@]2(C)[C@H](C)CC[C@]3(CCC(=O)[C@H]32)[C@@H](C)[C@@H]1O |
| 0.25 (≈ 0.368 µM) | C=C[C@]1(C)C[C@@H](OC(=O)CSc2cccc(NC(=O)c3ccc(B(O)O)cc3[N+](=O)[O-])c2)[C@]2(C)[C@H](C)CC[C@]3(CCC(=O)[C@H]32)[C@@H](C)[C@@H]1O |
| 0.063 (≈ 0.0967 µM) | C=C[C@]1(C)C[C@@H](OC(=O)CSc2ccc(NC(=O)c3ccc(B(O)O)c(F)c3)cc2)[C@]2(C)[C@H](C)CC[C@]3(CCC(=O)[C@H]32)[C@@H](C)[C@@H]1O |
| 0.063 (≈ 0.0943 µM) | C=C[C@]1(C)C[C@@H](OC(=O)CSc2cccc(NC(=O)c3ccc(B(O)O)cc3Cl)c2)[C@]2(C)[C@H](C)CC[C@]3(CCC(=O)[C@H]32)[C@@H](C)[C@@H]1O |
